Publication PMC8599513, “Efficient biosynthesis of nucleoside cytokinin angustmycin A containing an unusual sugar system” (Nature Communications, 2021)
One block for each compound: values may come before it.

Legend:
[1] = tested on: T1, AgmF; experiment: HPLC dehydration assay; type: biochemical, Streptomyces angustmyceticus; conditions: dehydration to angustmycin A; kinetic assay conditions only in supplement
T1 construct: recombinant, overexpressed in and purified from E. coli BL21(DE3)

[2] = target: T2, AgmE (Streptomyces angustmyceticus, UniProt A0A5J4LCM7); experiment: HPLC and LC-MS, AMP formation; type: biochemical; conditions: 1 mM Mg2+, 50 mM PBS pH 7.5, 30 °C
T2 construct: gene San01_08850; recombinant, overexpressed in and purified from E. coli BL21(DE3)
T2 sequence (A0A5J4LCM7 1-178): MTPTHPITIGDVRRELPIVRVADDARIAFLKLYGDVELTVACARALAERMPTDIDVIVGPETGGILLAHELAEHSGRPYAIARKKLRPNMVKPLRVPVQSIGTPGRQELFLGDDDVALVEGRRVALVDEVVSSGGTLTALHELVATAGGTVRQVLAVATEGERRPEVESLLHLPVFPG

[3] = target: T3, AgmA (Streptomyces angustmyceticus, UniProt A0A5J4L869); experiment: HPLC and LC-MS, adenine release; type: biochemical; conditions: 50 mM Tris-Cl pH 7.5, 1 mM substrate, 30 °C, 2 h
T3 construct: gene San01_08890; recombinant, overexpressed in and purified from E. coli BL21(DE3)
T3 sequence (A0A5J4L869 1-193): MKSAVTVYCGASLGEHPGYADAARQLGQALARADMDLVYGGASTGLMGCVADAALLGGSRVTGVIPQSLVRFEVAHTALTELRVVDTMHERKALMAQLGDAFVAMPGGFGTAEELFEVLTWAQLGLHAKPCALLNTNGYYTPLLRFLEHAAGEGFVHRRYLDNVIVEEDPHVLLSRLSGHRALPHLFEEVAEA

Km [1]: 1380 ± 121 µM
Structure (SMILES): Nc1ncnc2c1ncn2[C@]1(CO)O[C@H](CO)[C@@H](O)[C@H]1O [compound 2, angustmycin C]

Structure (SMILES): O=P(O)(O)OC[C@H]1O[C@H](OP(=O)(O)OP(=O)(O)O)[C@H](O)[C@@H]1O [PRPP]
HPLC and LC-MS, AMP formation ([2]; co-substrate adenine): assayed in vitro with the substrates adenine and phosphoribosyl pyrophosphate (PRPP)

Structure (SMILES): Nc1ncnc2[nH]cnc12 [adenine]
HPLC and LC-MS, AMP formation ([2]; co-substrate PRPP 1 mM, methods print adenosine instead of adenine): assayed in vitro with the substrates adenine and phosphoribosyl pyrophosphate (PRPP)

Structure (SMILES): Nc1ncnc2c1ncn2[C@H]1C[C@H](O)[C@@H](COP(=O)(O)O)O1 [dAMP]
HPLC and LC-MS, adenine release [3]: AgmA is capable of consuming AMP/dAMP as a substrate

Structure (SMILES): Nc1ncnc2c1ncn2[C@@H]1O[C@H](COP(=O)(O)O)[C@@H](O)[C@H]1O [AMP]
HPLC and LC-MS, adenine release [3]: AgmA is capable of consuming AMP/dAMP as a substrate
